Non-standard residues stand in square brackets, D forms with d. Residues, ends and D or L forms follow the SMILES beside them.
Key:
[1] = system: HK-I-GFP; test: HK-I-GFP detachment from mitochondria by confocal microscopy, SH-SY5Y; type: cell-based, human; settings: 7 μM, 3 h, serum-free medium, Suppl Fig 2A
Description: Mitochondrial VDAC1-based peptides: Attacking oncogenic properties in glioblastoma […]
Cell culture cells were fixed for 15 min using 4% paraformaldehyde prepared in PBS, rinsed with PBS, permabilized with 0.3%
Human glioblastoma U-87MG, U-118MG, CRL- PBST, and stained with DAPI (1:2000). Cell imaging was 2610 (LN-18), U-251MG, human neuroblastoma SH- carried out by confocal microscopy (Olympus 1X81).
SY5Y, mouse glioma GL-261 and mouse neuroblastoma […]
Cellular ATP levels were estimated using a luciferase-based assay (CellTiter-Glo, Promega). […] ATP levels were cytosol was analyzed by immunoblotting. […]
luminescence was recorded using an Infinite M1000 plate peptide (3, 5, 10 μM for 3h), harvested, washed with reader (Tecan, Männedorf, Switzerland). […]
ﬂuoride) containing 0.02% digitonin and incubated for Mitochondrial membrane potential (ΔΨ) was 10 min on ice. Samples were centrifuged at 12,000xg at determined using tetramethylrhodamine methylester 4°C for 10 min to obtain supernatants (cytosolic extracts (TMRM) dye. U-87MG cells (6×10^5/ml) were incubated free of mitochondria) that were analyzed by SDS-PAGE with the indicated concentrations of D-ΔN-Ter-Antp and immuno-probed using anti-hexokinase antibodies, peptide for 3 h, washed twice with PBS, incubated with and then with secondary HRP-conjugated anti-rabbit tetramethylrhodamine methyl ester (TMRM, 800 nM, antibodies. […]

[2] = system: cellular ATP levels in U-87MG cells; test: Cellular ATP levels (CellTiter-Glo); type: cell-based, human; settings: 3 h, % of control, n=2 or 3
Description: Figure 2 Mode of action of VDAC1-based peptides – interacting with- and detaching HK, releasing Cyto c, decreasing ATP level and inducing apoptosis A. Purified HK-II was fluorescently labeled using the NanoTemper protein-labeling Kit BLUE. […] Then, 3-5 μl of the samples were loaded into MST-grade glass capillaries and thermophoresis was measured using a Monolith-NT115 apparatus, as described in Materials and methods available online in Supplemental information. […] The final DMSO concentration in control and peptide-treated cells was 0.07%. Fixed cells were visualized using confocal microscopy (Olympus 1×81), as described in Materials and Methods available online in Supplemental information. […] The levels of HK in the supernatants were quantified and are presented as relative units. D. D-ΔN-Ter-Antp induces mitochondrial inner membrane depolarization analyzed as described in Materials and Methods available online in Supplemental information. […] Cells then were analyzed for Δψ using TMRM. Δψ is presented as percentage of control. […] Release of Cyto c from the mitochondria was analyzed by immunostaining using anti-Cyto c antibodies and confocal microscopy (Olympus 1×81) as described in Materials and Methods available online in Supplemental information. […] Quantification of apoptosis in control and peptide's treated cells are presented bellow the images. […]

With `CC[C@@H](C)[C@@H](NC(=O)[C@@H](CCCCN)NC(=O)[C@H](NC(=O)[C@@H](CCC(N)=O)NC(=O)[C@@H](CCCNC(=N)N)NC(=O)[C@@H](CC(C)C)NC(=O)CNC(=O)[C@@H](Cc1ccccc1)NC(=O)CNC(=O)[C@@H](Cc1ccc(O)cc1)NC(=O)CNC(=O)[C@@H](CCCCN)NC(=O)[C@H](NC(=O)[C@@H](Cc1ccccc1)NC(=O)[C@H](NC(=O)[C@@H](CC(=O)O)NC(=O)[C@H](N)CCCNC(=N)N)C(C)C)[C@H](C)O)[C@H](C)CC)C(=O)N[C@H](Cc1c[nH]c2ccccc12)C(=O)N[C@H](Cc1ccccc1)C(=O)N[C@H](CCC(N)=O)C(=O)N[C@H](CC(N)=O)C(=O)N[C@H](CCCNC(=N)N)C(=O)N[C@H](CCCNC(=N)N)C(=O)N[C@H](CCSC)C(=O)N[C@H](CCCCN)C(=O)N[C@H](Cc1c[nH]c2ccccc12)C(=O)N[C@H](CCCCN)C(=O)N[C@H](CCCCN)C(=O)O` [D-ΔN-Ter-Antp] (H-[dR][dD][dV][dF][dT][dK]G[dY]G[dF]G[dL][dR][dQ][dI][dK][dI][dW][dF][dQ][dN][dR][dR][dM][dK][dW][dK][dK]-OH; N-terminus and C-terminus assumed) the “HK-I-GFP detachment (fluorescence distribution)” value [1] was “became diffuse” and the “decrease in cellular ATP levels” value [2] was “about 80%”.
With `CC[C@H](C)[C@H](NC(=O)[C@H](C)NC(=O)[C@@H](N)Cc1c[nH]cn1)C(=O)N[C@@H](Cc1ccc(O)cc1)C(=O)N1CCC[C@H]1C(=O)N[C@@H](CCCNC(=N)N)C(=O)N[C@@H](Cc1c[nH]cn1)C(=O)N[C@@H](CO)C(=O)N[C@@H](Cc1c[nH]c2ccccc12)C(=O)N[C@H](C(=O)N[C@@H](Cc1c[nH]c2ccccc12)C(=O)N[C@@H](CCC(=O)O)C(=O)N[C@H](CCCCN)C(=O)N[C@H](CCCCN)C(=O)N[C@H](CC(C)C)C(=O)N[C@H](CCC(=O)O)C(=O)N[C@@H](C(=O)N[C@H](C)C(=O)N[C@@H](C(=O)N[C@H](CC(N)=O)C(=O)N[C@H](CC(C)C)C(=O)N[C@H](C)C(=O)N[C@H](Cc1c[nH]c2ccccc12)C(=O)N[C@@H](C(=O)N[C@H](C)C(=O)NCC(=O)N[C@H](CC(N)=O)C(=O)N[C@H](CO)C(=O)N[C@H](CC(N)=O)C(=O)N[C@@H](CCCCN)C(=O)N[C@@H](Cc1c[nH]c2ccccc12)C(=O)N[C@H](C(=O)N[C@@H](Cc1c[nH]c2ccccc12)C(=O)N[C@@H](CCCCN)C(=O)O)[C@@H](C)O)[C@H](C)O)C(C)C)[C@H](C)O)[C@@H](C)O` [Tf-D-LP4] the “HK-I-GFP detachment (fluorescence distribution)” value [1] was “became diffuse” and the “decrease in cellular ATP levels” value [2] was “about 50%”.
